`CC1C(=O)Nc2c(Oc3ccccc3Cl)cccc21` (stereo unspecified) gave a melting point of 138 to 139 °C. As to `Cc1nc(-n2cnn(Cc3c(C)noc3C)c2=O)sc1C(=O)NCc1cccnc1`, the melting point was 233 to 234 °C. In the case of `C[C@@H]1CNC[C@H](C)N1Cc1ccc(COc2cccc3c2CN(C2CCC(=O)NC2=O)C3=O)cc1` (stereo partly specified), the melting point lay in the range of 253 to 255 °C. Take `COc1ccc(Cl)cc1NC(=O)[C@H]1[C@H](c2ccc(Cl)cc2)C1(C)C` (relative stereo): the melting point is 162 to 164 °C. Turning to `Cc1cc(F)nc(-c2ccc(F)cc2)c1`, the melting point was 49 °C. In the case of `CC(=O)OCOC(=O)Oc1c(Br)cc(C#N)cc1Br` it was 84 to 86 °C; in that of `CN(C)c1ccc(-c2nc(Cl)c3ccccc3n2)cc1`, 167 to 170 °C; in that of `CNc1ccc(Cl)nc1`, 70 °C. Regarding `Nc1nc2c(s1)CCN(CC=Cc1ccccc1OCc1ccccc1)CC2`, the melting point was in the range of 103 to 107 °C.

`CN=C(NS(=O)(=O)c1ccc(Cl)cc1)C1=NN(c2ccc(Cl)cc2)C(c2ccccc2)C1` (stereo unspecified) returned a melting point of 134 to 144 °C. In the case of `CC(=O)Nc1ccc(C(C)=O)cc1CN(C)C` it was 68 to 72 °C; in that of `CC(C)(C)OC(=O)N1[C@@H](C(=O)O)C[C@H](S(=O)(=O)c2ccccc2)[C@H]1c1ccccc1F` (racemic), 186 °C. Consider `Cc1oc(-c2ccccc2)nc1COc1ccc(COc2cncc(CO)c2)cc1`, for which the melting point lay in the range of 128 to 130 °C. The compound `CCOC(Nc1ccccc1)(OCC)C1(Cl)C=CN=C(C(=O)c2ccc(Cl)cc2)C1` (stereo unspecified) showed a melting point of 123 to 124 °C. The figure for `CCC(=O)c1nc(C(C)(C)C)c(O)c(C(C)(C)C)n1` is 123 to 125 °C; for `CCc1nsc(NC(=O)C(C)c2ccc3oc(-c4c(F)cccc4Cl)nc3c2)c1Cl` (stereo unspecified) it is 178 to 179 °C; for `CC(=O)Nc1ccc(C)cc1Oc1c(NCc2ccccc2)cc(C(=O)O)cc1S(N)(=O)=O` it is 203 °C.

For `O=C(Nc1ccc(Cl)cc1)c1cccc(Cl)c1`, the melting point is 124 to 126 °C. In turn, `CC(C)[Si](Oc1ccc2c(=O)c(N3CCC(O)(c4ccccc4)CC3)coc2c1)(C(C)C)C(C)C` had a melting point of 163 to 164 °C. On to `CC(C)(C)OC(=O)Cn1cc(Cl)c(-c2cc(Cl)cc(Cl)c2)n1`, for which the melting point turned out to be 86 °C. `COC(=O)C1=C(C)NC(C)=C(C(=O)OCCCOc2ccc(CCCCO)cc2)C1c1cccc([N+](=O)[O-])c1` (stereo unspecified) displayed a melting point of 72 °C. Consider `CCOC(=O)C(OCc1ccc(Cl)cc1)(C(F)(F)F)C(F)(F)F`, for which the melting point turned out to be 33 °C. As to `C=CCc1cc(C(=O)O)ccc1O`, the melting point lay within 119 to 123 °C.

`CC(C)(C)OC(=O)NC1C(=O)N(C(O)C(=O)OC(c2ccccc2)c2ccccc2)C1CBr` (stereo unspecified) registered a melting point of 133 to 137 °C. With `CN1CCC/C1=C\c1nc(-c2ccc(F)cc2)c(-c2ccncc2)n1CCCc1ccccc1`, the melting point was in the range of 171 to 172 °C.

`Cc1cc(C)c2cccc(OCc3c(Cl)ccc(S(=O)(=O)N4CC(O)CC4C(=O)O)c3Cl)c2n1` (stereo unspecified) gave a melting point above 260 °C.

As for `O=C(c1ccc(-n2ccc(CO)n2)cc1Cl)N1Cc2cccn2Cc2ccccc21`, the melting point came out at 85 °C. In turn, `Cc1ccccc1COCC1OC(n2cc(C(F)(F)F)c(=O)[nH]c2=O)CC1O` (stereo unspecified) came in with a melting point of 178 to 179 °C. Compound `Cc1cc(C(N)=S)c2c(c1C)C(=O)CC2` yielded a melting point of 207 to 208 °C. In the case of `CCOC(=O)c1nc(-c2ccccc2)n(-c2ccc(C(F)(F)F)cc2Cl)n1` it was 107 to 108 °C; in that of `CC(c1oc2ccccc2c(=O)c1-c1cc(F)cc(F)c1)n1cnc2c(N)ncnc21` (stereo unspecified), 267 to 269 °C. With `COC(=O)c1cccc(C=O)c1O`, the melting point lay in the range of 82 to 84 °C. `COc1ccc2c(n1)C1(CO2)C(=O)N(Cc2ncccc2C(F)(F)F)c2ccccc21` (stereo unspecified) returned a melting point of 195 to 198 °C.

For the compound `O=C(c1ccc(S)cc1)c1cccc([N+](=O)[O-])c1`, the melting point came out at 114 °C. On to `Cc1cc(C)cc(-c2cnn3c(-c4cccc(-c5nnn(CCN6CCCCC6)n5)c4)ccnc23)c1`, for which the melting point is 66 °C.

`C#CCN1C(=O)CC(c2ccccc2)N=C1c1ccccc1` (stereo unspecified) showed a melting point of 74.5 to 77 °C. The compound `CCOC(=O)C(O)=CC(=O)c1c[nH]c2ccccc12` came in with a melting point above 300 °C.

The compound `C=CN1NCC2CC3=C(C=CC(c4ccc(F)cc4)C3)CC21C` (stereo unspecified) showed a melting point of 70 to 72 °C. `Cc1cc(-n2cnn(Cc3ccccc3)c2=O)sc1C(=O)NCc1cccnc1` displayed a melting point of 180 to 181 °C.

On to `CCC(CC)(NCCCn1cnc(CO)c1)c1ccccc1`, for which the melting point was 82 to 84 °C. In turn, `O=c1ccc2c(OS(=O)(=O)C(F)(F)F)cccc2o1` registered a melting point of 104 to 105 °C. Compound `CCN(CC)CCNC(=O)c1c(I)ccc2cc3ccccc3nc12` showed a melting point of 81 to 83 °C. Turning to `CC(=O)OC1CC2CCC3C4CCC(C(C)=O)C4(C)CC(=O)C3C2(C)CC1Br` (stereo unspecified), the melting point fell in the range of 154 to 156 °C. In the case of `Cc1nn(CCC(C)O)c(-c2ccc(F)cc2)c1-c1ccc2c(c1)NC(=O)CO2` (stereo unspecified), the melting point was 158 to 159 °C.

In turn, `COc1ccc(C(=O)CCC2OCCO2)cc1OC` came in with a melting point of 103 to 105 °C. `CCN1CCc2cc(OC)c(OC)cc2C1C1CC(C(=O)N2CCN(c3ccccn3)CC2)CCC12c1cc(OC)c(OC)cc1CCN2CC` (stereo unspecified) displayed a melting point of 115 to 117 °C.

As for `N#Cc1cccc2c1NCCC2`, the melting point lay within 75 to 76 °C. Compound `CC(C)c1nc(CN(C)C(=O)N[C@H](C(=O)N[C@@H](Cc2ccccc2)C[C@H](O)[C@H](Cc2ccccc2)NC(=O)OCc2cnc(C(C)C)s2)C(C)C)cs1` gave a melting point of 64 to 66 °C. In turn, `O=C(NC1CCSCC1)c1cnccc1C(F)(F)F` returned a melting point of 161 to 163 °C. Consider `OCC1NCCc2occc21` (stereo unspecified), for which the melting point is 66 to 69 °C. For the compound `COc1ccc(C=C2NC(C(=O)Cc3cc(OC)c(OC)c(OC)c3)=Cc3ccccc32)cc1OC`, the melting point lay in the range of 164 to 170 °C. On to `Cc1cccc(C(=O)c2[nH]c3cc(Cl)ccc3c2NC(=O)N(C)C)c1`, for which the melting point lay within 198 to 200 °C. Turning to `C[C@]1(COc2ccc(N3CCC(N4CCN(c5ccc(Cl)cc5)CC4)CC3)cc2)Cn2cc([N+](=O)[O-])nc2O1`, the melting point was in the range of 247 to 249 °C.

Regarding `Cn1ncc2c(=O)n3ccsc3nc21`, the melting point was 220 to 221 °C.

For the compound `CCNc1nc(C(F)(F)F)nc(NCC)c1[N+](=O)[O-]`, the melting point lay within 60 to 65 °C. `CSc1cnc(OCCOc2ncnc(NS(=O)(=O)c3ccc(C(C)(C)C)cc3)c2Br)nc1` returned a melting point of 120 to 121 °C. In the case of `CC(C)OCC1(C(C)(F)F)c2cc(Cl)ccc2Nc2ncccc21` (stereo unspecified) it was 148 to 149 °C; in that of `CCOC(=O)C(C#N)=Cc1cc(OC)c(N)c(OC)c1`, 77 to 78 °C; in that of `O=C(Cc1ccc(Cl)cc1)c1ccc(Br)cc1`, 128 to 129 °C. Take `CN1c2ccc(-c3ccc4ccccc4c3)cc2Sc2cc(-c3ccc4ccccc4c3)ccc21`: the melting point is 276 to 281 °C. Compound `CCOc1cc(C(=CC#N)c2ccc(OC)c(F)c2)ccc1OC` gave a melting point of 122 to 124 °C.

(Values after a melting point compilation (Tetko et al.; mined from patent text by program, amines drawn as free bases though some values may be those of a salt).)
